Experimental findings from PMC7701510, “Identification of HN252 as a potent inhibitor of protein phosphatase PPM1B” (Journal of Cellular and Molecular Medicine, 2020) are described below.

Structures are written as SMILES. “Also recorded” adds a separate entry of the source.

In one data set the target is T1, PPM1F (Homo sapiens, UniProt P49593).
T1 sequence (P49593 1-454): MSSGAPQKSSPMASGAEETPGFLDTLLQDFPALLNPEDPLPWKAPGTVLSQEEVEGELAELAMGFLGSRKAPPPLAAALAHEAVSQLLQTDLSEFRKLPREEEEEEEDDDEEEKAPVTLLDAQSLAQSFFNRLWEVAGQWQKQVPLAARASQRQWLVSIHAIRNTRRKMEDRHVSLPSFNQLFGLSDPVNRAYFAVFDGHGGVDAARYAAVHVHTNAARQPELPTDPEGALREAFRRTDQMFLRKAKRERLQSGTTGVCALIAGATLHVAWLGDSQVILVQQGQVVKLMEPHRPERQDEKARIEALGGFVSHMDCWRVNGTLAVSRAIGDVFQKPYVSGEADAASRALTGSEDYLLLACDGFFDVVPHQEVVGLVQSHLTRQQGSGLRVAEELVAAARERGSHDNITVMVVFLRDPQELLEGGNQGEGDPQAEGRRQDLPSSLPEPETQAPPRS
In words: pNPP hydrolysis phosphatase assay (selectivity panel). Type of data set: biochemical. To be noted: pNPP as substrate.

A further data set is described as follows: Cytotoxicity. The format is cell-based. To be noted: low micromolar range; data not shown.
In a further data set the target is PRL. In words: pNPP hydrolysis phosphatase assay (selectivity panel). The format is biochemical. To be noted: pNPP as substrate.
The next data set concerns the target T2, LYP (Homo sapiens, UniProt Q9Y2R2).
T2 sequence (Q9Y2R2 1-807): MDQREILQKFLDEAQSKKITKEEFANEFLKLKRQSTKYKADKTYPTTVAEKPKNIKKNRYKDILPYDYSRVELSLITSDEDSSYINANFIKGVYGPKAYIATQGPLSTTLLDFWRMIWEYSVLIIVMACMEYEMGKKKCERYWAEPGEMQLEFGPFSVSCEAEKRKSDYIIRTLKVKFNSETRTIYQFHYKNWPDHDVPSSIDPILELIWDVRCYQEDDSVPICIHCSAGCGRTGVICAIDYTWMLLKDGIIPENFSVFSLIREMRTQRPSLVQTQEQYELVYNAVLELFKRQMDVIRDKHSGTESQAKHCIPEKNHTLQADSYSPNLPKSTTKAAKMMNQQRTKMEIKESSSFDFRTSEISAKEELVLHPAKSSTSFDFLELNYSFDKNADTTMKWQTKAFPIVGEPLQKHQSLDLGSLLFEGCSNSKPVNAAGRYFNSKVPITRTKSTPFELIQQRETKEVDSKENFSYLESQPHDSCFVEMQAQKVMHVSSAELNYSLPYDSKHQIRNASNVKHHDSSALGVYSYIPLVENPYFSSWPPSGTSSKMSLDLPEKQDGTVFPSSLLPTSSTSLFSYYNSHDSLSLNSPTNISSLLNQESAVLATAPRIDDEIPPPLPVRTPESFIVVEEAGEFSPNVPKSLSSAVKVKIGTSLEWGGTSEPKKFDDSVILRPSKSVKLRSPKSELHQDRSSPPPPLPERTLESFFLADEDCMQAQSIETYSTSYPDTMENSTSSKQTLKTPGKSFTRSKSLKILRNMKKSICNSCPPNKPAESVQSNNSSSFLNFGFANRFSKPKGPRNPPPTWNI
The data set is described as above. Type of data set: biochemical. To be noted: pNPP as substrate.

The target of the next data set is T3, PPM1G (Homo sapiens, UniProt O15355).
T3 sequence (O15355 1-546): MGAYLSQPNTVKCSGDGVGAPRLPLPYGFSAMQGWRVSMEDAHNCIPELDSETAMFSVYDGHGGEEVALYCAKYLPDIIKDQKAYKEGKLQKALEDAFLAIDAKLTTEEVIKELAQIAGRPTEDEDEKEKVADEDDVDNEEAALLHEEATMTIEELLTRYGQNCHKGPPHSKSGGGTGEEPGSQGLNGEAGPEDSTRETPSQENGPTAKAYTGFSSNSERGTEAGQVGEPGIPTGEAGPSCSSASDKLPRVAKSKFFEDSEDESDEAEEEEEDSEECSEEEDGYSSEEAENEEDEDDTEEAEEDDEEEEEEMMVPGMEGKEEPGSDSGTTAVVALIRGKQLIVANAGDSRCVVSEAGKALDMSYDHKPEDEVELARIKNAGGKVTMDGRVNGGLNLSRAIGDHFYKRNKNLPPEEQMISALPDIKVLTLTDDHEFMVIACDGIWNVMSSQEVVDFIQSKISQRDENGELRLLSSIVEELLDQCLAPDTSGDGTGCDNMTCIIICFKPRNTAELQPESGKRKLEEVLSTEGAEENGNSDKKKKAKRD
Described as above. The format is biochemical. The following applies: pNPP as substrate.

The target in the next data set is T4, PPM1A (Homo sapiens, UniProt P35813).
T4 sequence (P35813 1-382): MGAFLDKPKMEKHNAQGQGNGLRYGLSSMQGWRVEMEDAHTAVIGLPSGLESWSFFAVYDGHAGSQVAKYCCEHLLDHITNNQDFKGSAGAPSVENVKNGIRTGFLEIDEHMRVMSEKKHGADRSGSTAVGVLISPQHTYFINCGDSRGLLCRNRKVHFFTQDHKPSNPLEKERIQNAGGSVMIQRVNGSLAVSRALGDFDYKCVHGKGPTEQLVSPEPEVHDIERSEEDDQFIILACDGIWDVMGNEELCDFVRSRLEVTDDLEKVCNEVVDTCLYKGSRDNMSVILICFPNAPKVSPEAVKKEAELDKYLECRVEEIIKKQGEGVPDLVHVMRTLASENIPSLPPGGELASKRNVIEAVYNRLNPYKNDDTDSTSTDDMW
Described as above. Type of data set: biochemical.

For another data set, the system named is HL7702 cells. Briefly: Phospho Explorer Antibody Microarray, HN252 treatment. The format is cell-based. The following applies: 2-hours exposure, HN252 5 μM.

For `Nc1cc(-c2ccc(-c3ccc(O)c(O)c3)cc2)ccc1C(=O)O` [HN252], the IC50 at PPM1F is 30.6 ± 4.05 µM; against PRL, > 50 µM; at LYP, 98.2 ± 11.7 µM; against PPM1G, 32.6 ± 5.54 µM; against PPM1A (pNPP as substrate) it was 0.72 ± 0.22 µM. Also, in the data set “Cytotoxicity”, the cytotoxicity result is given as “no detectable cytotoxicity”. For the same molecule, on PPM1A (Lineweaver-Burk plot, pNPP hydrolysis, pH 7.0, 37°C, 0.4 μM PPM1A), the inhibition pattern result is listed as “non-competitive inhibition; also recorded: non‐competitive inhibitor”. Besides, the “number of proteins with enhanced phosphorylation (1.5-fold vs control) also elevated in PPM1B knockdown cells” value in the data set with HL7702 cells is on record as 30.
